Experimental findings from ChEMBL document CHEMBL1201862, “PubChem BioAssay data set” (2004) are described below.

Holding throughout (assay): growth of human tumour cells (NCI), 48 h
Test [1] concerns SNB-75.
Test [2] concerns BT-549.
Test [3] relates to M14.
Test [4] relates to KM12.
The subject of test [5] is IGROV-1.
In test [6] the test system is MDA-MB-231.
Test [7] relates to SN12C.
In test [8] the test system is HT-29.
Test [9] has as its system NCI-H522.
Test [10] relates to OVCAR-4.
For test [11], the system named is CAKI-1.
Test [12] relates to SK-MEL-2.
The test system of test [13] is TK-10.
In test [14] the test system is RXF 393.
The subject of test [15] is UACC-62.
Test [16] has as its system T47D.
For test [17], the system named is OVCAR-3.
The subject of test [18] is SK-MEL-5.
Test [19] relates to CCRF-CEM.
Test [20] relates to Malme-3M.

The structures appear in SMILES notation.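 The compound was tested at five concentrations on cells cultured in 96-well plates, with a 48-hour exposure period. GI50: concentration for 50% inhibition of growth.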 The source made the active and inactive calls. Rule as the data show it: active = GI50 up to about 1.1 µM and inactive = higher. Bounds are passed on as bounds.

On to `CCCCC(=O)Nc1ccc2cc(C(=O)OC)c(Cl)nc2n1`, for which the GI50 in test [1] is > 100 µM (inactive); in test [2], > 100 µM (inactive); in test [3], > 100 µM (inactive); in test [4], 3.15 µM (inactive); in [5] it was > 100 µM (inactive); in test [6], > 100 µM (inactive). Further, the GI50 is 50 µM (inactive) in test [7]; > 100 µM (inactive) in test [8]; > 100 µM (inactive) in test [9]; > 100 µM (inactive) in test [10]; > 60.7 µM (inactive) in test [11]; > 100 µM (inactive) in [12]. Moreover, the GI50 is > 71.3 µM (inactive) in test [13]; > 100 µM (inactive) in test [14]; > 100 µM (inactive) in test [15]; 7.89 µM (inactive) in test [16]; 7.59 µM (inactive) in test [17]; > 90.8 µM (inactive) in [18]. In addition, the GI50 in test [19] and in [20] was > 100 µM (inactive) throughout.

For `C[C@]12CCC3C4=C(CCC3C1CCC2=O)C(=O)[C@H]1O[C@H]1C4=O` (stereo not given in full), the GI50 in [1] was 3.23 µM (inactive); in test [2], 1.98 µM (inactive); in [3], 4.05 µM (inactive); in [4] it was 5.43 µM (inactive); in [5] it was 2.24 µM (inactive); in [6], 1.8 µM (inactive). Also, the GI50 in [7] was 2.64 µM (inactive); in test [8], 1.36 µM (inactive); in [9], 1.84 µM (inactive); in [10], 3.05 µM (inactive); in test [11] it was 0.275 µM (active); in test [12], 12.2 µM (inactive). The GI50 in test [13] was 3.35 µM (inactive); in test [14], 1.6 µM (inactive); in test [15], 2.94 µM (inactive); in test [16], 0.61 µM (active); in [17], 1.46 µM (inactive); in [18] it was 10 µM (inactive). The results for the GI50 in test [19] and in test [20] were 1.12 µM (inactive) and 21.6 µM (inactive), respectively.

With `CC(=O)c1cccc(NC2C(N)C(NC(=O)N(C)C)(C(C)O)C(C)(O)C2(O)COC(=O)c2c(C)cccc2O)c1` (stereo not given), the GI50 in test [1] is 0.0948 µM (active); in test [2] it was < 0.001 µM (active); in [3], 0.0118 µM (active); in test [4] it was < 0.001 µM (active); in [5], < 0.001 µM (active); in test [6], 0.00187 µM (active). In addition, the GI50 in test [7] was < 0.001 µM (active); in test [8] it was < 0.001 µM (active); in test [9] it was 0.01 µM (active); in [10], < 0.001 µM (active); in test [11], < 0.001 µM (active); in test [12] it was 0.01 µM (active). Also, the GI50 is < 0.001 µM (active) in test [13]; < 0.001 µM (active) in test [14]; 0.01 µM (active) in test [15]; < 0.001 µM (active) in test [16]; 0.01 µM (active) in test [17]; < 0.001 µM (active) in test [18]. The GI50 in [19] and in test [20] was < 0.001 µM (active) in each case.

As for `C=CCC(CCC(C)=O)(C(=O)OCC)C(=O)OCC`, the GI50 in test [1], in [2], in test [3], in [4], in [5] and in [6] was > 100 µM (inactive) each time. The GI50 in test [7], in test [8], in test [9], in test [10], in test [11] and in test [12] was > 100 µM (inactive) throughout. The GI50 in [13], in [14], in test [15], in test [16], in [17] and in test [18] was > 100 µM (inactive) each time. Further, the GI50 in test [19] and in [20] was > 100 µM (inactive) throughout.

As for `Nc1ccc(-c2nc3cc(F)ccc3s2)cc1I`, the GI50 was 16.1 µM (inactive) in [1]; 13.5 µM (inactive) in test [2]; 39.3 µM (inactive) in [3]; 14.7 µM (inactive) in [4]; < 0.01 µM (active) in test [5]; 13.6 µM (inactive) in test [6]. Besides, the GI50 in [7] is 20.9 µM (inactive); in test [8] it was 0.889 µM (active); in test [9] it was 13.6 µM (inactive); in test [10], 0.0782 µM (active); in test [11], 15.6 µM (inactive); in [12], 20.2 µM (inactive). Further, the GI50 in test [13] was 0.0351 µM (active); in test [14], 15 µM (inactive); in test [15] it was 19.6 µM (inactive); in [16] it was 0.0658 µM (active); in [17], 0.255 µM (active); in test [18] it was 21.7 µM (inactive). Besides, the figures for the GI50 in test [19] and in [20] were > 100 µM (inactive) and 26.1 µM (inactive), respectively.

Turning to `CC[n+]1[b-](C(C)(C)C)n(/N=C/C(C)(C)C)[b-](C(C)(C)C)[n+]1CC`, the GI50 in test [1], in [2], in test [3], in test [4], in [5] and in test [6] was > 100 µM (inactive) in each case. Further, the GI50 in test [7] was > 100 µM (inactive); in [8] it was > 100 µM (inactive); in test [9] it was > 100 µM (inactive); in test [10], > 100 µM (inactive); in test [11], > 100 µM (inactive); in test [12] it was 70.3 µM (inactive). Moreover, the GI50 in test [13], in test [14], in test [15], in test [16], in [17] and in [18] was > 100 µM (inactive) each time. The values for the GI50 in test [19] and in test [20] were 66.1 µM (inactive) and > 100 µM (inactive), respectively.

Take `O=C1C(Br)=CC2(C=C1Br)CCNC1=C2C(=O)c2ncccc2C1=O`: the GI50 in test [1] was 1.4 µM (inactive); in test [2] it was 1.42 µM (inactive); in test [3] it was 1.55 µM (inactive); in test [4], 1.25 µM (inactive); in test [5], 0.54 µM (active); in [6] it was 1.75 µM (inactive). Moreover, the GI50 in test [7] is 1.21 µM (inactive); in test [8], 1.99 µM (inactive); in [9], 0.353 µM (active); in test [10] it was 1.22 µM (inactive); in test [11], 1.61 µM (inactive); in [12], 0.116 µM (active). The GI50 in [13] is 2.32 µM (inactive); in test [14] it was 1 µM (active); in [15] it was 0.641 µM (active); in [16], 1.97 µM (inactive); in test [17], 1.62 µM (inactive); in test [18], 0.533 µM (active). The GI50 in test [19] was 1.58 µM (inactive); in test [20], 1.09 µM (active).

In the case of `O=C1/C(=C(/Br)I)c2ccccc2-c2ccccc21`, the GI50 in test [1] was 15.5 µM (inactive); in test [2], 7.03 µM (inactive); in test [3], 9.95 µM (inactive); in test [4] it was 14.2 µM (inactive); in test [5], 13.2 µM (inactive); in test [6], 6.14 µM (inactive). In addition, the GI50 in test [7] was 16.2 µM (inactive); in [8], 6.55 µM (inactive); in test [9] it was 2.09 µM (inactive); in test [10] it was 14.7 µM (inactive); in [11], 5.57 µM (inactive); in test [12] it was 8.73 µM (inactive). Also, the GI50 in [13] was 8.97 µM (inactive); in [14] it was 3.21 µM (inactive); in [15] it was 7.19 µM (inactive); in test [16], 11.9 µM (inactive); in [17] it was 9.98 µM (inactive); in [18], 16 µM (inactive). Further, the GI50 in test [19] is 2.16 µM (inactive); in test [20], 3.56 µM (inactive).

Consider `NC1=CN(CCCO)C2=N/C(=C\c3ccccc3)C(=O)N12`, for which the GI50 in test [1], in [2], in test [3], in [4], in [5] and in test [6] was > 100 µM (inactive) in each case. The GI50 was > 100 µM (inactive) in test [7]; > 100 µM (inactive) in test [8]; 80.4 µM (inactive) in [9]; > 100 µM (inactive) in test [10]; > 100 µM (inactive) in [11]; > 100 µM (inactive) in test [12]. The GI50 in test [13], in test [14], in [15], in test [16], in [17] and in [18] was > 100 µM (inactive) throughout. The GI50 in test [19] and in test [20] was > 100 µM (inactive) in each case.

In the case of `CC(C)NC(=O)OCc1c(COC(=O)NC(C)C)n(C)c2c1ccc1ccsc12`, the GI50 in test [1] was 6.78 µM (inactive); in test [2], 7.16 µM (inactive); in test [3], 8.3 µM (inactive); in test [4], 15.3 µM (inactive); in [5] it was 12.5 µM (inactive); in test [6], 16.7 µM (inactive). Further, the GI50 in test [7] is 5.66 µM (inactive); in test [8], 12.1 µM (inactive); in test [9], 5.09 µM (inactive); in test [10] it was 3.61 µM (inactive); in test [11], 1.81 µM (inactive); in [12], 12.7 µM (inactive). The GI50 in test [13] was 22.2 µM (inactive); in test [14] it was 6.98 µM (inactive); in [15] it was 6.9 µM (inactive); in test [16] it was 15.5 µM (inactive); in test [17] it was 13.9 µM (inactive); in test [18], 10.7 µM (inactive). The GI50 in [19] was 2.25 µM (inactive); in [20], 4.36 µM (inactive).
